Experimental data: patent US8329908B2, “Dual action antibiotics” (Morphochem Aktiengesellschaft fur Kombinatorische Chemie, priority 2001, dated 2012)

How the values were obtained:
S. pneumoniae = test: MIC against S. pneumoniae; type: cell-based
Method: (§1) All examples were tested against several gram positive and gram negative bacteria. They all have a broader and more pronounced activity than the corresponding quinolone and oxazolidinone as well as a 1+1 combination of these two compounds.

E. faecium = test: MIC against E. faecium; type: cell-based
Method: as §1

S. aureus (MSSA) = test: MIC against S. aureus (MSSA); type: cell-based
Method: as §1

E. faecalis = test: MIC against E. faecalis; type: cell-based
Method: as §1

S. aureus (MRSA) = test: MIC against S. aureus (MRSA); type: cell-based
Method: as §1

| SMILES | melting point | Typical MIC range (S. pneumoniae) [µg/mL] | Typical MIC range (E. faecium) [µg/mL] | Typical MIC range (S. aureus (MSSA)) [µg/mL] | Typical MIC range (E. faecalis) [µg/mL] | Typical MIC range (S. aureus (MRSA)) [µg/mL] |
| --- | --- | --- | --- | --- | --- | --- |
| CC(=O)NC[C@H]1CN(c2ccc(N3CCN(c4c(F)cc5c(=O)c(C(=O)O)cn6c5c4OCC6C)CC3)c(F)c2)C(=O)O1 (stereo partly drawn) [Example 2, 9-(4-{4-[5-(acetylamino-methyl)-2-oxo-oxazolidin-3-yl]-2-fluoro-phenyl}-piperazin-1-yl)-8-fluoro-3-methyl-6-oxo-2,3-dihydro-6H-1-oxa-3a-aza-phenalene-5-carboxylic acid] | 258 °C (dec.) |  |  |  |  |  |
| O=C(O)c1cn(C2CC2)c2cc(N3CCNCC3)c(F)cc2c1=O [ciprofloxacin] |  | 1 to 4 | 0.25 to 32 | 0.125 to 1 | 0.5 to 32 | 0.5 to 32 |
| CC(=O)NC[C@H]1CN(c2ccc(N3CCOCC3)c(F)c2)C(=O)O1 [linezolid] |  | 0.125 to 1 | 1 to 2 | 1 to 2 | 0.5 to 2 | 1 to 2 |
| CC(=O)NC[C@H]1CN(c2ccc(N3CCN(c4cc5c(cc4F)c(=O)c(C(=O)O)cn5C4CC4)CC3)c(F)c2)C(=O)O1 (stereo in doubt) [Example 1, 7-(4-{4-[5-(acetylamino-methyl)-2-oxo-oxazolidin-3-yl]-2-fluoro-phenyl}-piperazin-1-yl)-1-cyclopropyl-6-fluoro-4-oxo-1,4-dihydro-quinoline-3-carboxylic acid] | 315 to 320 °C (dec.) |  |  |  |  |  |
